“Also recorded” adds a separate entry of the source.

For orientation: Ki means a measure of affinity in units of concentration, obtained from inhibition or displacement.

In assay [1] the test system is Ishikawa cell. In words: Agonist/antagonist character of the analogs (Tables 1 and 2). Format: cell-based. The settings on record: estrogen agonism or antagonism, assay not named in the tables. The text has this:
From the estrogen competition assay, we expected that the methyl and ethyl esters, E11-2,1 and E11-2,2 would have relatively high activity in the estrogen potency assay, induction of alkaline phosphatase in Ishikawa cells. However, the results were quite unexpected (see FIG. 5, attached). […] We had never previously seen this disparity between estrogen receptor binding and biological activity. It occurred to us that we were observing the results that would obtained with a SERM and that E11-2,2 was in fact an antiestrogen. Consequently, we repeated the Ishikawa assay as an antiestrogenic assay (the assay is run in the presence of specified amounts of estradiol). […] We continued our synthesis of various analogs in order to define the chemical characteristics that lead to antiestrogenic effects. […] In this regard, several compounds are described with a 17α-ethynyl group in order to protect the C-17 hydroxyl from biological oxidation.

For another assay, the system named is Ishikawa cells. The experiment in a line: Ishikawa estrogenic potency assay, induction of alkaline phosphatase. Format: cell-based. The conditions noted are these: for relative stimulatory activity (RSA): induction of alkaline phosphatase, estradiol set at 100%; for estrogenic activity (in words): induction of alkaline phosphatase in Ishikawa cells. An excerpt: (§1) Ishikawa Estrogenic Potency Assay From the estrogen competition assay, we expected that the methyl and ethyl esters, E11-2,1 and E11-2,2 would have relatively high activity in the estrogen potency assay, induction of alkaline phosphatase in Ishikawa cells. However, the results were quite unexpected (see FIG. 5, attached). […] We had never previously seen this disparity between estrogen receptor binding and biological activity. It occurred to us that we were observing the results that would obtained with a SERM and that E11-2,2 was in fact an antiestrogen. Consequently, we repeated the Ishikawa assay as an antiestrogenic assay (the assay is run in the presence of specified amounts of estradiol).

The target of another assay is T1, estrogen receptor (Homo sapiens, UniProt P03372).
T1 sequence (P03372 1-595): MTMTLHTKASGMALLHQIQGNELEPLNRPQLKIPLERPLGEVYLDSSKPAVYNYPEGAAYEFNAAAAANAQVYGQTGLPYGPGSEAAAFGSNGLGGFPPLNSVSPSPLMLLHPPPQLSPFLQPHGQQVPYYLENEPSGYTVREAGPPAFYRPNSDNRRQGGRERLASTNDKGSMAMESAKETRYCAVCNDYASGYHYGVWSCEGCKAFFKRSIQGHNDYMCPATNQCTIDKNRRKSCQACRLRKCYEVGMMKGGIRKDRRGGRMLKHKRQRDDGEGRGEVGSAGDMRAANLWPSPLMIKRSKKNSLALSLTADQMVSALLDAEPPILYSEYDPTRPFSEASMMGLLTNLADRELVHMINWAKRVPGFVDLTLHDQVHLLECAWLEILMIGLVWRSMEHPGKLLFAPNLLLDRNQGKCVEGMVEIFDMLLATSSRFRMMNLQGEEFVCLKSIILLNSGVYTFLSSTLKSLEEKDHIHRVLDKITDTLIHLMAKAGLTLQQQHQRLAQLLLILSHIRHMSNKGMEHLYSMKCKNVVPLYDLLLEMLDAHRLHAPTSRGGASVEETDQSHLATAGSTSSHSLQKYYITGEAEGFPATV
The experiment in a line: Estrogen receptor competition assay (relative binding affinity). The conditions noted are these: estradiol (E2) = 100%.

The subject of assay [2] is Ishikawa cell. In words: Antiestrogen Ishikawa cell assay (run in the presence of estradiol). The class given is cell-based. The conditions noted are these: for antiestrogenic activity (in words): inhibition of estradiol-stimulated alkaline phosphatase.
From the text: as §1, with “From” for “Ishikawa Estrogenic Potency Assay From”

For assay [3], the system named is uterotrophic action of estradiol. In words: In vivo uterotrophic assay, antiestrogenic action. Details: species or system rat. The settings on record: immature female rats; for effect on uterotrophic action of estradiol: 20 ng estradiol. As for the experimental part: In Vivo Uterotropic Activity
The analogs were administered concurrently in the same oil.

As for `COCCCC1CC2(C)C(O)CCC2C2CCc3cc(O)ccc3C12` (centres unmarked) [E11-3,1 ether], the “agonist / antagonist character” value in the assay with Ishikawa cell [1] was “antagonist”.

With `CCCCOC(=O)C[C@H]1C[C@]2(C)[C@@H](O)CC[C@H]2[C@@H]2CCc3cc(O)ccc3[C@@H]12` [E11-2,4], the “agonist / antagonist character” value in the assay with Ishikawa cell [1] is on record as “strong antagonist”.

As for `CC(=O)OC[C@H]1C[C@]2(C)[C@@H](O)CC[C@H]2[C@@H]2CCc3cc(O)ccc3[C@@H]12` [E11-1,2Rev], the “agonist / antagonist character” value in the assay on Ishikawa cell [1] is on record as “agonist”.

Regarding `CC(=O)OCC[C@H]1C[C@]2(C)[C@@H](O)CC[C@H]2[C@@H]2CCc3cc(O)ccc3[C@@H]12` [E11-2,2Rev], the “agonist / antagonist character” value with Ishikawa cell [1] is on record as “agonist”.

With `C[C@]12C[C@H](CCOC3CCCC3)[C@@H]3c4ccc(O)cc4CC[C@H]3[C@@H]1CC[C@@H]2O` [E11-2,cyclo-Pent ether], the “agonist / antagonist character” value in the assay on Ishikawa cell [1] is given as “extremely strong antagonists; also recorded: very strong antagonist”.

For the compound `CCOCC1CC2(C)C(O)CCC2C2CCc3cc(O)ccc3C12` (centres unmarked) [E11-1,2ether], in the assay on Ishikawa cell [1], the “agonist / antagonist character” value is “agonist”.

In the case of `CCOC(=S)C[C@H]1C[C@]2(C)[C@@H](O)CC[C@H]2[C@@H]2CCc3cc(O)ccc3[C@@H]12` [E11-2S2], the “agonist / antagonist character” value with Ishikawa cell [1] is reported as “antagonist”; with Ishikawa cell [1] (listed as E11-2S,2), “strong antagonist”.

For `COC(=O)CC[C@H]1C[C@]2(C)[C@@H](O)CC[C@H]2[C@@H]2CCc3cc(O)ccc3[C@@H]12` [E11-3,1], in the assay on Ishikawa cell [1], the “agonist / antagonist character” value was “antagonist”.

With `C[C@]12CC[C@@H]3c4ccc(O)cc4CC[C@H]3[C@@H]1CCC2=O` [estrone, reference compound], the “relative stimulatory activity (RSA)” value in the assay with Ishikawa cells came to 4%.

On to `COC(=O)C[C@H]1C[C@]2(C)[C@@H](O)CC[C@H]2[C@@H]2CCc3cc(O)ccc3[C@@H]12` [E11-2,1], for which, in the assay on Ishikawa cell [1], the “agonist / antagonist character” value is “estrogen”. Moreover, in the assay with Ishikawa cells, the “relative stimulatory activity (RSA)” value was 16%. Moreover, the “relative binding affinity (RBA)” value on estrogen receptor came out at 24%. Moreover, the “antiestrogenic activity (in words)” value in the assay with Ishikawa cell [2] is recorded as “neither E11-2,1 nor E11-2,0 showed any antiestrogenic activity”.

On to `CC(C)(C)OCCC1CC2(C)C(O)CCC2C2CCc3cc(O)ccc3C12` (centres unmarked) [E11-2,tBu ether], for which the “agonist / antagonist character” value in the assay on Ishikawa cell [1] was “very weak antagonist”.

As for `C[C@]12C[C@H](CC(=O)O)[C@@H]3c4ccc(O)cc4CC[C@H]3[C@@H]1CC[C@@H]2O` [E11-2,0], in the assay with Ishikawa cells, the “estrogenic activity (in words)” value is “more active than E11-2,2”. Besides, the “relative binding affinity (RBA)” value on estrogen receptor is 0.3%. Moreover, the “antiestrogenic activity (in words)” value in the assay with Ishikawa cell [2] is given as “neither E11-2,1 nor E11-2,0 showed any antiestrogenic activity”.

For `CCCOC(=O)C[C@H]1C[C@]2(C)[C@@H](O)CC[C@H]2[C@@H]2CCc3cc(O)ccc3[C@@H]12` [E11-2,3], the “agonist / antagonist character” value with Ishikawa cell [1] is “strong antagonist”.

In the case of `CCOCCCC1CC2(C)C(O)CCC2C2CCc3cc(O)ccc3C12` (centres unmarked) [E11-3,2 ether], the “agonist / antagonist character” value in the assay on Ishikawa cell [1] is “strong antagonist”.

For the compound `CC12CC(CCCOCCF)C3c4ccc(O)cc4CCC3C1CCC2O` (centres unmarked) [E11-3,2F1 ether], in the assay with Ishikawa cell [1], the “agonist / antagonist character” value is listed as “strong antagonist”.

Regarding `CCOC(=O)C[C@H]1C[C@]2(C)[C@@H](O)CC[C@H]2[C@@H]2CCc3cc(O)ccc3[C@@H]12` [E11-2,2], in the assay with Ishikawa cell [1], the “agonist / antagonist character” value was “antiestrogen; also recorded: strong antagonist”. Moreover, the “estrogenic activity (in words)” value in the assay with Ishikawa cells is “almost inactive”. In addition, the “relative binding affinity (RBA)” value at estrogen receptor turned out to be 45%. The “effect on uterotrophic action of estradiol” value in assay [3] (3 μg analog) is “partially active”; in assay [3] (10 μg analog), “completely abolished the effect of 20 ng estradiol”. In assay [3] (100 μg analog, 50 ng estradiol, FIG. 7), the “effect on uterotrophic action of estradiol (uterine weight)” value is “inhibiting the action of 50 ng of estradiol”. Also, the “antiestrogenic activity (in words)” value in the assay with Ishikawa cell [2] is “inhibited the estrogenic stimulation of alkaline phosphatase in the Ishikawa cell, with very high potency”. In addition, the Ki with Ishikawa cell [2] (inhibition of estrogenic stimulation of alkaline phosphatase, several assays) is 1 to 2 nM.

Turning to `CCCOCC1CC2(C)C(O)CCC2C2CCc3cc(O)ccc3C12` (centres unmarked) [E11-1,3ether], the “agonist / antagonist character” value in the assay with Ishikawa cell [1] is recorded as “strong antagonist”.

As for `CC(=O)OCCC[C@H]1C[C@]2(C)[C@@H](O)CC[C@H]2[C@@H]2CCc3cc(O)ccc3[C@@H]12` [E11-3,2Rev], the “agonist / antagonist character” value with Ishikawa cell [1] was “antagonist”.

On to `C[C@]12C[C@H](CCOC3CC3)[C@@H]3c4ccc(O)cc4CC[C@H]3[C@@H]1CC[C@@H]2O` [E11-2,cyclo-Pr ether], for which, in the assay on Ishikawa cell [1], the “agonist / antagonist character” value is on record as “strong antagonist”.

As for `CC(C)OC(=O)C[C@H]1C[C@]2(C)[C@@H](O)CC[C@H]2[C@@H]2CCc3cc(O)ccc3[C@@H]12` [E11-2,3i], the “agonist / antagonist character” value with Ishikawa cell [1] was “strong antagonist”.

Consider `CCOCCC1CC2(C)C(O)CCC2C2CCc3cc(O)ccc3C12` (centres unmarked) [E11-2,2ether], for which, in the assay with Ishikawa cell [1], the “agonist / antagonist character” value is “strong antagonist”. In addition, in assay [3] (30 μg analog), the “inhibition of the effect of estradiol” value was “about 50%”.

In the case of `CC(C)OCCCC1CC2(C)C(O)CCC2C2CCc3cc(O)ccc3C12` (centres unmarked) [E11-3,iPr ether], the “agonist / antagonist character” value in the assay on Ishikawa cell [1] is recorded as “strong antagonist”.

`CCCC(=O)C[C@H]1C[C@]2(C)[C@@H](O)CC[C@H]2[C@@H]2CCc3cc(O)ccc3[C@@H]12` [E11-2K3]: the “agonist / antagonist character” value in the assay with Ishikawa cell [1] is “antagonist”. Also, the “effect on uterotrophic response of estradiol” value in assay [3] (30 μg analog) was “completely abolished the uterotrophic response of estradiol”.

On to `C#CC1(O)CCC2C3CCc4cc(O)ccc4C3C(CCCOC(C)(C)C)CC21C` (stereo not drawn) [17α-ethynyl-E11-3,tBu ether], for which the “agonist / antagonist character” value in the assay with Ishikawa cell [1] is reported as “very strong antagonist”.

For the compound `C#CC1(O)CCC2C3CCc4cc(O)ccc4C3C(CCCOC(C)C)CC21C` (stereo not drawn) [17α-ethynyl-E11-3,iPr ether], the “agonist / antagonist character” value with Ishikawa cell [1] was “very strong antagonist”.

Take `COCCC1CC2(C)C(O)CCC2C2CCc3cc(O)ccc3C12` (centres unmarked) [E11-2,1ether]: the “agonist / antagonist character” value in the assay with Ishikawa cell [1] is “agonist/slight antagonist”.

With `CC(C)(C)C(=O)OCCC[C@H]1C[C@]2(C)[C@@H](O)CC[C@H]2[C@@H]2CCc3cc(O)ccc3[C@@H]12` [E11-3,piv Rev], the “agonist / antagonist character” value in the assay on Ishikawa cell [1] was “antagonist”.

Regarding `CCC(=O)C[C@H]1C[C@]2(C)[C@@H](O)CC[C@H]2[C@@H]2CCc3cc(O)ccc3[C@@H]12` [E11-2K2], the “agonist / antagonist character” value in the assay on Ishikawa cell [1] was “weak agonist”.

Turning to `CCCOCCC1CC2(C)C(O)CCC2C2CCc3cc(O)ccc3C12` (centres unmarked) [E11-2,3ether], the “agonist / antagonist character” value with Ishikawa cell [1] was “strong antagonist”.

For the compound `CC(C)OCCC1CC2(C)C(O)CCC2C2CCc3cc(O)ccc3C12` (centres unmarked) [E11-2,iPr ether], the “agonist / antagonist character” value in the assay on Ishikawa cell [1] is recorded as “strong antagonist”.

Consider `CC(C)(C)OCCCC1CC2(C)C(O)CCC2C2CCc3cc(O)ccc3C12` (centres unmarked) [E11-3,tBu ether], for which, in the assay on Ishikawa cell [1], the “agonist / antagonist character” value is listed as “extremely strong antagonists; also recorded: very strong antagonist”.

For the compound `CC(C)(C)COC(=O)C[C@H]1C[C@]2(C)[C@@H](O)CC[C@H]2[C@@H]2CCc3cc(O)ccc3[C@@H]12` [E11-2,5neo], the “agonist / antagonist character” value in the assay with Ishikawa cell [1] is “antagonist”.

The record behind these values is patent publication US9315539B2 (YALE UNIVERSITY, priority 2002, dated 2016).
